This test has as its target OTU domain-containing protein 3 (Homo sapiens) (UniProt Q5T2D3). Nature of the test: Validation of screening hits, potency titration, in vitro enzymatic, OTU domain-containing protein 3 DUB inhibitors (AID 1645868). To be noted: purified OTUD3, ubiquitin-rhodamine cleavage fluorescence, 2 h.

Activity calls are given as the source filed them.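 How the source made its calls: active means maximal percent inhibition of the deubiquitinase OTUD3 of at least 30% across the tested doses; inactive means the rest.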

OTU domain-containing protein 3 (Homo sapiens), sequence (Q5T2D3 whole entry, looked up, the tested form may be a part): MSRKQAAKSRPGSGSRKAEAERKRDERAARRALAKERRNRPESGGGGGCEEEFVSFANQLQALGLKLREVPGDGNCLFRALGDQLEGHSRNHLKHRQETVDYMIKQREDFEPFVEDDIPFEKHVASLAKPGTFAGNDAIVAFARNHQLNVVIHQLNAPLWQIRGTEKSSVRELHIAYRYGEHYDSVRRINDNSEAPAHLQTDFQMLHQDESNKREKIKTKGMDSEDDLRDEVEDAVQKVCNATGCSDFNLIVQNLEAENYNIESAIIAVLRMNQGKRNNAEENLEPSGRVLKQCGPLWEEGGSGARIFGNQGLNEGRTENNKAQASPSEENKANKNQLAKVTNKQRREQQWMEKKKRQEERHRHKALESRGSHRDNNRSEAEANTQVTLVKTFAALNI

The term IC50 denotes the concentration at which inhibition is half-maximal. For the compound `CC1Cc2ccccc2N1C(=O)Cn1c(=O)cc(O)c2ccccc21` (stereo unspecified), the IC50 was > 50 µM (inactive).

Regarding `O=C(Nc1ccncc1)c1ncoc1-c1cccc(Cl)c1`, the IC50 is > 50 µM (inactive). Turning to `CC1CCCN(CCCNC(=O)c2ccc(N3CCc4ccccc43)s2)C1` (stereo unspecified), the IC50 was > 50 µM (inactive).

As to `COc1cc(NC(=O)Cc2ccccc2)ccc1NC(=O)c1cc2ccccc2o1`, the IC50 was 16.4 µM.

Regarding `Cc1cc(O)cc2cc3c(c(O)c12)C(=O)CCC3O` (stereo unspecified), the IC50 is > 50 µM (inactive).

As to `Cc1ccc(C(=O)Nc2c(C(=O)N3CCN(c4ccccc4)CC3)[nH]c3ccccc23)cc1`, the IC50 is > 50 µM (inactive). Under `CCCc1nc2sc3c(N(CC)CC)ncnc3c2c2c1CCC2` stands > 50 µM (inactive). With `CCOC(=O)C1C(c2ccc(Br)cc2)C2(C(=O)c3ccccc3C2=O)C2C=Cc3ccccc3N12` (stereo unspecified) the figure was > 50 µM (inactive); with `O=C(Cc1c[nH]c2ccccc12)Nc1nc2ccccc2s1`, > 50 µM (inactive); with `Fc1ccc(Cc2nc(-c3ccc4nncn4c3)no2)cc1`, > 50 µM (inactive). On to `CC1(C)CC2CC(C)(CN2Cc2c(O)ccc3ccccc23)C1` (stereo unspecified), for which the IC50 is > 50 µM (inactive). Under `Cc1cc(O)c2c3c(c(O)cc2c1)C(=O)c1c(O)cccc1C3=O` stands 4.84 µM. With `COc1ccc(OCC(=O)Nc2ccc(C)c(OCc3cc(=O)n4ccccc4n3)c2)cc1` the figure was > 50 µM (inactive); with `Fc1ccc(Oc2nc(CN3CCOCC3)nc3sc4c(c23)CCCC4)c(Cl)c1`, > 50 µM (inactive); with `COc1ccc(OC)c(-n2c(SCC(=O)N3CCc4ccccc43)nnc2-c2cccc(S(=O)(=O)N(C)C)c2)c1`, > 50 µM (inactive). For `O=C(O)c1ccccc1C(=O)Nc1ccc(SC(C(=O)Nc2cccc(Cl)c2)c2ccccc2)cc1` (stereo unspecified), the half-inhibitory concentration (IC50) was 33.6 µM. With `Cc1ccc2c(C)nc(Nc3ncc4c(n3)CC(c3ccco3)CC4=O)nc2c1` (stereo unspecified) the figure was 0.168 µM. With `O=c1ccc(-c2noc(Cc3cccc(Cl)c3)n2)c[nH]1` the figure was > 50 µM (inactive). For the compound `O=C1CC(c2cc3c(cc2Br)OCO3)c2cc3c(cc2N1)OCCO3` (stereo unspecified), the IC50 is 18.7 µM. Under `CC1Oc2ccccc2C(=O)N(Cc2ccc([N+](=O)[O-])cc2)C1=O` (stereo unspecified) stands > 50 µM (inactive); under `CC1CCc2sc(NC(=O)c3ccccc3Oc3ccccc3)c(C(N)=O)c2C1` (stereo unspecified), 31.6 µM.

As for `O=C(CSc1nnc(Cn2cnc3ccccc32)o1)Nc1ccc([N+](=O)[O-])cc1`, the 50% inhibitory concentration (IC50) is 20.2 µM. Under `O=C(O)c1ccc(C2Cc3c([nH]c(=O)[nH]c3=O)O2)cc1` (stereo unspecified) stands 26.5 µM; under `N#C/C(=C\c1ccc(-c2cc(Cl)ccc2Cl)o1)c1nnc2n1CCCCC2`, > 50 µM (inactive). Under `Cc1ccc(NC(=O)c2nnn(-c3ccccc3Br)c2C)cc1C` stands > 50 µM (inactive); under `COc1ccc(Nc2nc(C(=O)NCc3ccccc3)cc3occc23)cc1`, > 50 µM (inactive).

In the case of `Fc1ccc(Cn2ccc(-c3cnc(-c4ccccc4)s3)n2)cc1`, the IC50 is > 50 µM (inactive). With `CC1CCN(Cc2nnc(-c3cn(CC(=O)NC4CCCCC4)c4ccccc34)o2)CC1`, the IC50 was > 50 µM (inactive). As to `c1ccc(-c2noc(-c3cc(-c4ccncc4)nc4ccccc34)n2)nc1`, the IC50 is > 50 µM (inactive). On to `O=C(NCc1ccco1)c1ccc2c(c1)N(Cc1cccc(F)c1)C(=O)c1ccccc1S2`, for which the IC50 is > 50 µM (inactive). Under `CCCc1nc2sc3c(NCCCN4CCOCC4)ncnc3c2c2c1CCC2` stands > 50 µM (inactive); under `Cn1c(=O)c2c(ncn2CC(=O)NC2CCCc3ccccc32)n(C)c1=O` (stereo unspecified), > 50 µM (inactive). In the case of `O=c1c2c(ccn1Cc1cc(F)ccc1F)ccn2Cc1cccnc1`, the IC50 was > 50 µM (inactive). For `Cc1sc2ncn3c(=O)n(CC(=O)Nc4ccc(F)c(Cl)c4)nc3c2c1C`, the IC50 was > 50 µM (inactive).

For `COc1ccc(NC(=O)c2nnc(C(=O)NCCN3CCCCCC3)s2)cc1`, the half-inhibitory concentration (IC50) was 38.8 µM. With `Cc1nc(C(=O)Nc2cccc(Cl)c2Cl)nn1-c1cc(Cl)cc(Cl)c1` the figure was > 50 µM (inactive); with `CC1=C2C(=NCCN1)C(=O)N(c1ccccc1)C2c1cccnc1` (stereo unspecified), > 50 µM (inactive).

As for `Cc1cccc(C(=O)Nc2cccc(SC(C(=O)Nc3ccc(O)c(C(=O)O)c3)c3ccccc3)c2)c1` (stereo unspecified), the IC50 was 24.1 µM. As for `Cc1cc(C)c2cc(CN(CCc3ccccc3)C(=O)Nc3ccccc3)c(=O)[nH]c2c1`, the IC50 was > 50 µM (inactive). Under `O=C(NCCc1ccccn1)c1cn2ccnc(-c3ccc(F)cc3)c2n1` stands > 50 µM (inactive); under `Cc1ccccc1NC(=O)c1ccn(COc2ccc(Cl)cc2)n1`, > 50 µM (inactive); under `CCCCNC(=O)c1cc2cccnc2n(Cc2ccccc2)c1=O`, > 50 µM (inactive). Take `CC1CS(=O)(=O)N(c2ccc(C(=O)Nc3ccc4c(c3)OCCO4)cc2)C1=O` (stereo unspecified): the IC50 is 28.5 µM.

Regarding `O=C(Cn1cc(C(=O)C(F)(F)F)c2ccccc21)N1CCc2ccccc21`, the IC50 is 4.98 µM. `N#Cc1c(-c2cccs2)cc(-c2cccs2)[nH]c1=O`: the IC50 is > 50 µM (inactive). In the case of `CC(=O)Nc1cc2cc(-n3cccc3)ccc2oc1=O`, the IC50 is > 50 µM (inactive). Under `CCC(C)c1ccc(O[C@@H]2O[C@@H]3COC(c4ccccc4)O[C@H]3[C@H](O)[C@H]2NC(C)=O)cc1` (stereo partly specified) stands 23.4 µM; under `O=C(Nc1cccc(Cl)c1)N1CCC(c2cc(-c3ccco3)n[nH]2)CC1`, > 50 µM (inactive); under `COc1ccc(C(C(=O)NCc2ccccc2)N(C(=O)CCN2CCc3ccccc32)c2ccc(C)c(C)c2)cc1` (stereo unspecified), > 50 µM (inactive). Consider `Cc1ccc(C)c(NS(=O)(=O)c2cc(-c3cnc(C4CC4)o3)ccc2C)c1`, for which the IC50 is > 50 µM (inactive). For the compound `COCC(=O)Nc1cc(F)c2nc(N3CCOCC3)ccc2c1`, the IC50 was > 50 µM (inactive). Under `Cc1cc(C(=O)N2CC(C(=O)Nc3cc(C(F)(F)F)ccc3Cl)C2)no1` stands > 50 µM (inactive). For the compound `O=C(CCc1nnc2n(Cc3ccc(F)cc3)c(=O)c3ccccc3n12)N1CCN(c2ccccn2)CC1`, the IC50 is > 50 µM (inactive). With `C/C1=C\CCC(C)C(O)CC(O)C(C)C(O)CCC(C)C(O)CC2(O)OC(CC(OC(=O)CC(=O)O)CC(O)CC(O)CC(O)C(C)C(O)/C=C/C(C)C(C(C)CCCCCCCCN=C(N)N)OC1=O)CC(O)C2O` (stereo unspecified) the figure was > 50 µM (inactive). Under `COc1ccc2nc(Nc3nc(-c4cnc(N5CCOCC5)nc4C)cc(=O)[nH]3)nc(C)c2c1` stands > 50 µM (inactive). As for `CCn1c(=O)c2ccccc2n(Cc2nc(-c3ccccc3OC)no2)c1=O`, the IC50 is > 50 µM (inactive). Take `O=C(COC(=O)C1CCCN1C(=O)C12CC3CC(CC(C3)C1)C2)c1ccc(Cl)cc1` (stereo unspecified): the IC50 was > 50 µM (inactive). Under `Cc1ccc(Nc2nc(C(=O)NCc3ccc4c(c3)OCO4)cc3occc23)cc1Cl` stands > 50 µM (inactive); under `CCc1noc(Cn2cnc3c4ccccc4n(CC(=O)NC4CCCCC4)c3c2=O)n1`, > 50 µM (inactive); under `O=C1COc2ccc(NC(=O)c3cnn(Cc4ccccc4)c3)cc2N1`, > 50 µM (inactive). Under `CCOc1ccc(NC(=O)COc2cccc(-n3cnnn3)c2)cc1` stands > 50 µM (inactive). Take `CC(=O)Nc1ccc([C@H]2OCC(=O)N(C3CCOCC3)[C@@H]2CO)cc1`: the IC50 is > 50 µM (inactive). Under `CCCC1Cc2c(sc3nc(SCC)nc(N)c23)CO1` (stereo unspecified) stands 26.9 µM; under `N#Cc1ccc(NC(=O)COC(=O)c2ccc3ccccc3n2)cc1`, > 50 µM (inactive); under `COc1ccccc1-c1ccc(SCC(=O)Nc2ccc3c(c2)OCCO3)nn1`, > 50 µM (inactive). For `CCCC(=O)N1CCC2(CC1)Nc1ccccc1NC2=O`, the IC50 was > 50 µM (inactive).

As for `COc1ccccc1/C=C/C(=O)Nc1nc2n(n1)C(c1ccc(Cl)cc1)CC(=O)N2` (stereo unspecified), the IC50 was > 50 µM (inactive). Under `O=C(NCc1ccc(F)cc1)C1CCCN(c2cnc3nccnc3c2)C1` (stereo unspecified) stands > 50 µM (inactive); under `O=C(Nc1ccc2c(c1)N(C(=O)C1CCCC1)CC2)c1c(F)cccc1F`, > 50 µM (inactive); under `COc1ccccc1NC(=O)Cn1cc(C(=O)c2ccc(C)cc2)c(=O)c2cc(Cl)ccc21`, 23.9 µM. Turning to `O=C(Cn1c(=O)n(CCC(=O)N2CC=C(c3ccccc3)CC2)c(=O)c2ccccc21)NCc1ccco1`, the IC50 is > 50 µM (inactive).

The values above are taken from PubChem BioAssay AID1645868 (Buhrlage Lab, Dana-Farber Cancer Institute and Novartis …, 2021).
